Assay results: ChEMBL document CHEMBL4011590, “Structure-activity relationship studies on 3,5-dinitrophenyl tetrazoles as antitubercular agents” (Eur J Med Chem, 2017)

How the values were obtained:
Type in all cases: functional
Candida albicans [1] = test: Antifungal activity against Candida albicans ATCC 44859 after 24 hrs by broth microdilution method; conditions: ATCC 44859, 24 h
Mycobacterium kansasii [2] = test: Antimycobacterial activity against Mycobacterium kansasii isolate 6509/96 after 21 days by micromethod; conditions: isolate 6509/96, 504 h
Lichtheimia corymbifera [3] = test: Antifungal activity against Absidia corymbifera 272 after 24 hrs by broth microdilution method; conditions: Lichtheimia corymbifera, 272, 24 h
Klebsiella pneumoniae [4] = test: Antibacterial activity against Klebsiella pneumoniae HK11750/08 after 24 hrs by broth microdilution method; conditions: HK11750/08, 24 h
Pichia kudriavzevii [5] = test: Antifungal activity against Candida krusei E28 after 24 hrs by broth microdilution method; conditions: E28, 24 h
Trichosporon asahii [6] = test: Antifungal activity against Trichosporon asahii 1188 after 48 hrs by broth microdilution method; conditions: Trichosporon asahii, 1188, 48 h
Mycobacterium kansasii [7] = test: Antimycobacterial activity against Mycobacterium kansasii isolate 6509/96 after 14 days by micromethod; conditions: isolate 6509/96, 336 h
Mycobacterium avium [8] = test: Antimycobacterial activity against Mycobacterium avium CNCTC My 330/80 after 21 days by micromethod; conditions: CNCTC My 330/80, 504 h
[9] = test system: Trichophyton mentagrophytes; test: Antifungal activity against Trichophyton mentagrophytes 445 after 72 hrs by broth microdilution method; conditions: Trichophyton mentagrophytes, 445, 72 h
Mycobacterium kansasii [10] = test: Antimycobacterial activity against Mycobacterium kansasii isolate 6509/96 after 7 days by micromethod; conditions: isolate 6509/96, 168 h
Staphylococcus aureus [11] = test: Antibacterial activity against methicillin-resistant Staphylococcus aureus HK5996/08 after 24 hrs by broth microdilution method; conditions: HK5996/08, 24 h
Klebsiella pneumoniae [12] = test: Antibacterial activity against extended spectrum beta-lactamase producing Klebsiella pneumoniae HK14368/08 after 24 hrs by broth microdilution method; conditions: HK14368/08, 24 h
Candida tropicalis [13] = test: Antifungal activity against Candida tropicalis 156 after 24 hrs by broth microdilution method; conditions: Candida tropicalis, 156, 24 h
Nakaseomyces glabratus [14] = test: Antifungal activity against Candida glabrata 20/I after 48 hrs by broth microdilution method
Mycobacterium avium [15] = test: Antimycobacterial activity against Mycobacterium avium CNCTC My 330/80 after 14 days by micromethod; conditions: CNCTC My 330/80, 336 h
Mycobacterium kansasii [16] = test: Antimycobacterial activity against Mycobacterium kansasii CNCTC My 235/80 after 21 days by micromethod; conditions: CNCTC My 235/80, 504 h
Staphylococcus aureus [17] = test: Antibacterial activity against methicillin-resistant Staphylococcus aureus HK5996/08 after 48 hrs by broth microdilution method; conditions: HK5996/08, 48 h
Staphylococcus aureus [18] = test: Antibacterial activity against Staphylococcus aureus ATCC 6538 after 48 hrs by broth microdilution method; conditions: ATCC 6538, 48 h
Klebsiella pneumoniae [19] = test: Antibacterial activity against Klebsiella pneumoniae HK11750/08 after 48 hrs by broth microdilution method; conditions: HK11750/08, 48 h
Trichosporon asahii [20] = test: Antifungal activity against Trichosporon asahii 1188 after 24 hrs by broth microdilution method; conditions: Trichosporon asahii, 1188, 24 h
Mycobacterium kansasii [21] = test: Antimycobacterial activity against Mycobacterium kansasii CNCTC My 235/80 after 14 days by micromethod; conditions: CNCTC My 235/80, 336 h
Staphylococcus aureus [22] = test: Antibacterial activity against Staphylococcus aureus ATCC 6538 after 24 hrs by broth microdilution method; conditions: ATCC 6538, 24 h
Aspergillus fumigatus [23] = test: Antifungal activity against Aspergillus fumigatus 231 after 48 hrs by broth microdilution method; conditions: Aspergillus fumigatus, 231, 48 h
Candida tropicalis [24] = test: Antifungal activity against Candida tropicalis 156 after 48 hrs by broth microdilution method; conditions: Candida tropicalis, 156, 48 h
Nakaseomyces glabratus [25] = test: Antifungal activity against Candida glabrata 20/I after 24 hrs by broth microdilution method
Pseudomonas aeruginosa [26] = test: Antibacterial activity against Pseudomonas aeruginosa ATCC 9027 after 48 hrs by broth microdilution method; conditions: ATCC 9027, 48 h
[27] = test system: Mycobacterium tuberculosis; test: Antimycobacterial activity against Mycobacterium tuberculosis H37Rv CNCTC My 331/88 after 14 days by micromethod; conditions: H37Rv CNCTC My 331/88, 336 h
Klebsiella pneumoniae [28] = test: Antibacterial activity against extended spectrum beta-lactamase producing Klebsiella pneumoniae HK14368/08 after 48 hrs by broth microdilution method; conditions: HK14368/08, 48 h
[29] = test system: Trichophyton mentagrophytes; test: Antifungal activity against Trichophyton mentagrophytes 445 after 120 hrs by broth microdilution method; conditions: Trichophyton mentagrophytes, 445, 120 h
[30] = test system: Staphylococcus epidermidis; test: Antibacterial activity against Staphylococcus epidermidis HK6966/08 after 48 hrs by broth microdilution method; conditions: HK6966/08, 48 h
Enterococcus sp. [31] = test: Antibacterial activity against Enterococcus sp. HK14365/08 after 48 hrs by broth microdilution method; conditions: HK14365/08, 48 h
Enterococcus sp. [32] = test: Antibacterial activity against Enterococcus sp. HK14365/08 after 24 hrs by broth microdilution method; conditions: HK14365/08, 24 h
Escherichia coli [33] = test: Antibacterial activity against Escherichia coli ATCC 8739 after 24 hrs by broth microdilution method; conditions: ATCC 8739, 24 h
[34] = test system: Mycobacterium tuberculosis; test: Antimycobacterial activity against Mycobacterium tuberculosis H37Rv CNCTC My 331/88 after 21 days by micromethod; conditions: H37Rv CNCTC My 331/88, 504 h
Pseudomonas aeruginosa [35] = test: Antibacterial activity against Pseudomonas aeruginosa ATCC 9027 after 24 hrs by broth microdilution method; conditions: ATCC 9027, 24 h
Aspergillus fumigatus [36] = test: Antifungal activity against Aspergillus fumigatus 231 after 24 hrs by broth microdilution method; conditions: Aspergillus fumigatus, 231, 24 h
Lichtheimia corymbifera [37] = test: Antifungal activity against Absidia corymbifera 272 after 48 hrs by broth microdilution method; conditions: Lichtheimia corymbifera, 272, 48 h
Candida albicans [38] = test: Antifungal activity against Candida albicans ATCC 44859 after 48 hrs by broth microdilution method; conditions: ATCC 44859, 48 h
Escherichia coli [39] = test: Antibacterial activity against Escherichia coli ATCC 8739 after 48 hrs by broth microdilution method; conditions: ATCC 8739, 48 h
[40] = test system: Staphylococcus epidermidis; test: Antibacterial activity against Staphylococcus epidermidis HK6966/08 after 24 hrs by broth microdilution method; conditions: HK6966/08, 24 h
Pichia kudriavzevii [41] = test: Antifungal activity against Candida krusei E28 after 48 hrs by broth microdilution method; conditions: E28, 48 h
Mycobacterium kansasii [42] = test: Antimycobacterial activity against Mycobacterium kansasii CNCTC My 235/80 after 7 days by micromethod; conditions: CNCTC My 235/80, 168 h

Cn1nnnc1SCn1nnc(-c2cc([N+](=O)[O-])cc([N+](=O)[O-])c2)n1
500 µM: MIC (Enterococcus sp. [31]) | MIC (Enterococcus sp. [32])
125 µM: MIC [30] | MIC [40]
> 500 µM: MIC (Candida albicans [1]) | MIC (Lichtheimia corymbifera [3]) | MIC (Klebsiella pneumoniae [4]) | MIC (Pichia kudriavzevii [5]) | MIC (Trichosporon asahii [6]) | MIC [9] | MIC (Staphylococcus aureus [11]) | MIC (Klebsiella pneumoniae [12]) | MIC (Candida tropicalis [13]) | MIC (Nakaseomyces glabratus [14]) | MIC (Staphylococcus aureus [17]) | MIC (Staphylococcus aureus [18]) | MIC (Klebsiella pneumoniae [19]) | MIC (Trichosporon asahii [20]) | MIC (Staphylococcus aureus [22]) | MIC (Aspergillus fumigatus [23]) | MIC (Candida tropicalis [24]) | MIC (Nakaseomyces glabratus [25]) | MIC (Pseudomonas aeruginosa [26]) | MIC (Klebsiella pneumoniae [28]) | MIC [29] | MIC (Escherichia coli [33]) | MIC (Pseudomonas aeruginosa [35]) | MIC (Aspergillus fumigatus [36]) | MIC (Lichtheimia corymbifera [37]) | MIC (Candida albicans [38]) | MIC (Escherichia coli [39]) | MIC (Pichia kudriavzevii [41])
16 µM: MIC99 (Mycobacterium kansasii [10]) | MIC99 (Mycobacterium kansasii [42])
2 µM: MIC99 [27] | MIC99 [34]
32 µM: MIC99 (Mycobacterium kansasii [2]) | MIC99 (Mycobacterium kansasii [7]) | MIC99 (Mycobacterium avium [8]) | MIC99 (Mycobacterium avium [15]) | MIC99 (Mycobacterium kansasii [16]) | MIC99 (Mycobacterium kansasii [21])

C[C@@H]1[C@H](O)[C@@H](C)/C=C/C=C/C=C/C=C/C=C/C=C/C=C/[C@H](O[C@@H]2O[C@H](C)[C@@H](O)[C@H](N)[C@@H]2O)C[C@@H]2O[C@](O)(C[C@@H](O)C[C@@H](O)[C@H](O)CC[C@@H](O)C[C@@H](O)CC(=O)O[C@H]1C)C[C@H](O)[C@H]2C(=O)O [AMPHOTERICIN B]
0.54 µM: MIC (Candida albicans [1]) | MIC [9] | MIC (Candida tropicalis [13]) | MIC (Nakaseomyces glabratus [25]) | MIC (Aspergillus fumigatus [36])
0.27 µM: MIC (Trichosporon asahii [20])
1 µM: MIC (Lichtheimia corymbifera [3]) | MIC (Pichia kudriavzevii [5])

O=[N+]([O-])c1cc(-c2nnn(CSc3nnnn3-c3ccccc3)n2)cc([N+](=O)[O-])c1
1 µM: MIC99 (Mycobacterium kansasii [7]) | MIC99 (Mycobacterium kansasii [42])
> 125 µM: MIC (Candida albicans [1]) | MIC (Lichtheimia corymbifera [3]) | MIC (Klebsiella pneumoniae [4]) | MIC (Pichia kudriavzevii [5]) | MIC (Trichosporon asahii [6]) | MIC [9] | MIC (Staphylococcus aureus [11]) | MIC (Klebsiella pneumoniae [12]) | MIC (Candida tropicalis [13]) | MIC (Nakaseomyces glabratus [14]) | MIC (Staphylococcus aureus [17]) | MIC (Staphylococcus aureus [18]) | MIC (Klebsiella pneumoniae [19]) | MIC (Trichosporon asahii [20]) | MIC (Staphylococcus aureus [22]) | MIC (Aspergillus fumigatus [23]) | MIC (Candida tropicalis [24]) | MIC (Nakaseomyces glabratus [25]) | MIC (Pseudomonas aeruginosa [26]) | MIC (Klebsiella pneumoniae [28]) | MIC [29] | MIC [30] | MIC (Enterococcus sp. [31]) | MIC (Enterococcus sp. [32]) | MIC (Escherichia coli [33]) | MIC (Pseudomonas aeruginosa [35]) | MIC (Aspergillus fumigatus [36]) | MIC (Lichtheimia corymbifera [37]) | MIC (Candida albicans [38]) | MIC (Escherichia coli [39]) | MIC [40] | MIC (Pichia kudriavzevii [41])
2 µM: MIC99 (Mycobacterium kansasii [2]) | MIC99 (Mycobacterium kansasii [21])
0.125 µM: MIC99 [27]
0.5 µM: MIC99 (Mycobacterium kansasii [10])
0.25 µM: MIC99 [34]
4 µM: MIC99 (Mycobacterium kansasii [16])
